The pIC50 is the IC50 on a negative log10 scale, so that one unit is a factor of ten. Higher therefore signals a small IC50.

Each structure is given as a SMILES string. pIC50: −log10 of the molar value.

Drawing on PMC6348771 (Redox Biology, 2018), this text covers IC50 for one molecule.

The target in this assay is T1, glutathione reductase (GR) (Saccharomyces cerevisiae, UniProt P41921).
T1 sequence (P41921 1-483): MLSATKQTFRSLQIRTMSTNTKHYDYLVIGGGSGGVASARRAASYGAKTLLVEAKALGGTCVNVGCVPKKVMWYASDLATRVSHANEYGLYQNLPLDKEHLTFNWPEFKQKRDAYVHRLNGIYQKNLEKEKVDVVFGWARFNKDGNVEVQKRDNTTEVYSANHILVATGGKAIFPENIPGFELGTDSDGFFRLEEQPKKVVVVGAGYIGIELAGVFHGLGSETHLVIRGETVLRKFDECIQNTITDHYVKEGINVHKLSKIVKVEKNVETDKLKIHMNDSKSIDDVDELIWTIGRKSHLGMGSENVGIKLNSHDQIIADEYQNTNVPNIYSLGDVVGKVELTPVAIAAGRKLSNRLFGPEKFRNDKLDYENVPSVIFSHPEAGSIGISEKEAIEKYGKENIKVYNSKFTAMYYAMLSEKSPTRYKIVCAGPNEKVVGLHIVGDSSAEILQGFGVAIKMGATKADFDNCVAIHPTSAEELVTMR
In words: enzyme activity assay versus GSH concentration. It is filed as biochemical.

For the molecule `N[C@@H](CCC(=O)N[C@@H](CS)C(=O)NCC(=O)O)C(=O)O` [GSH, Glutathione], the pIC50 was ~2.00.
